# Results reported in patent US7781592B2, “Thione derivative, method for the preparation thereof, and pharmaceutical composition containing the same” (CJ Cheiljedang Corporation, priority 2003, dated 2010).
# Key:
# COX-1 = target: T1, COX-1 (Homo sapiens, UniProt P23219); test: Assay for the COX-1 inhibitory activity using U-937 (PGE2 inhibition); assay type: cell-based; conditions: test compound 1 μM; U-937 human lymphoma cells; arachidonic acid substrate; PGE2 quantified; read-out: Cyclooxygenase (COX) Inhibition (%) COX-1 (1 μM)
# T1 construct: host or cells: U-937 human lymphoma cells
# T1 sequence (P23219 24-599): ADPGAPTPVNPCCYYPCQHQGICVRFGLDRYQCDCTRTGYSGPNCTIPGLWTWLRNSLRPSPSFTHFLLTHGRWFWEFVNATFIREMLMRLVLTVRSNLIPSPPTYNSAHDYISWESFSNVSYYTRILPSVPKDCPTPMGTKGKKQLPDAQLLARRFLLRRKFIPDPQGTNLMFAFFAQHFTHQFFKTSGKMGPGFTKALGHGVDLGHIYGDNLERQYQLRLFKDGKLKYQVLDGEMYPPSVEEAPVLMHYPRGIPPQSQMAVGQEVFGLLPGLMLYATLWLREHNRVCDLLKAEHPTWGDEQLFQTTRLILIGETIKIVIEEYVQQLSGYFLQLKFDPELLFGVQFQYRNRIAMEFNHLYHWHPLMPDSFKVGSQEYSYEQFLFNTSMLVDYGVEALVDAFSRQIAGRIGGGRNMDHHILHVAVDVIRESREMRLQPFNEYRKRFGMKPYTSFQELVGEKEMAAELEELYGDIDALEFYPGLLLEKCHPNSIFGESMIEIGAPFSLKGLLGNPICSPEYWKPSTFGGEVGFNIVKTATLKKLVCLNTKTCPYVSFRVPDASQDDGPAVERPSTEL
# Description: The collected cells were diluted with HBSS (×1, Hank's balanced salt solution) to a concentration of 1×10^6 cells/ml. 1 ml of the dilute cell solution was placed into each well of 12-well plates. 5 μl of 1 μM solution of a test compound in DMSO and 5 μl of DMSO as a control were added to the wells. The wells were incubated in CO2 incubator at 37° C. for 15 minutes. Separately, 10 mM stock solution of arachidonic acid in ethanol was diluted ten times in ethanol to prepare 1 mM solution of arachidonic acid. Arachidonic acid acts as a substrate. 10 μl of the 1 mM solution of arachidonic acid was added to each well and incubated at CO2 incubator at 37° C. for 30 minutes. The cell solution of each well was placed in a centrifuge test tube and centrifuged at 10,000 rpm at 4° C. for 5 minutes. The concentration of PGE2 in the collected cells and the supernatant was quantified by means of a monoclonal kit (Cayman Chemicals). The percentages of PGE2 inhibition in a group of the test compound-treated cells in relation to a group of the DMSO-treated cells were calculated. Based on the calculated values, the COX-1 inhibitory activities were evaluated.
# (§1) The percentages of the COX inhibition were calculated according to the following equation: % Inhibition=(concentration of PGE2 in test compound-untreated sample−concentration of PGE2 in test compound-treated sample)/(concentration of PGE2 in test compound-untreated sample)×100
# COX-2 = target: T2, COX-2 (Mus musculus, UniProt Q05769); test: Assay for the COX-2 inhibitory activity using Raw 264.7 cell line (PGE2 inhibition); assay type: cell-based; conditions: RAW264.7; test compound 30 nM; RAW 264.7 cells; aspirin pre-treated, interferon + LPS 18 hours; PGE2 by EIA; read-out: Cyclooxygenase (COX) Inhibition (%) COX-2 (30 nM)
# T2 construct: host or cells: RAW 264.7 cells, pre-treated with aspirin, then induced with interferon and LPS
# T2 sequence (Q05769 18-604): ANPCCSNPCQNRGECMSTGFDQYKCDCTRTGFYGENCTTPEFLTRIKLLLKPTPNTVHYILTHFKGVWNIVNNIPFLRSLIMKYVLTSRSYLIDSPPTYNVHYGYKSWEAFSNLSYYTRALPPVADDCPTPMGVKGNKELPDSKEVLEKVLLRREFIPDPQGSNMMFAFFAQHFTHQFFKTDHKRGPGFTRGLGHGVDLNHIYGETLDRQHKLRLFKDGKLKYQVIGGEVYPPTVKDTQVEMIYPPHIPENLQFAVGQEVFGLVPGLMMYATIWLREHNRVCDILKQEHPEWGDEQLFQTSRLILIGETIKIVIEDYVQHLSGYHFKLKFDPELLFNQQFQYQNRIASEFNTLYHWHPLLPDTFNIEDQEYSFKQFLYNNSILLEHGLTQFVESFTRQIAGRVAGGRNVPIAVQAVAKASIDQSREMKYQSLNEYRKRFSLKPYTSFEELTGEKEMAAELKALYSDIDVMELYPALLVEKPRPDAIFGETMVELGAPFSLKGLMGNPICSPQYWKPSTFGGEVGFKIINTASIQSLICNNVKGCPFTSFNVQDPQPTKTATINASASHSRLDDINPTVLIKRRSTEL
# Description: Each well was treated with 250 μM of aspirin and incubated at 37° C. for 2 hours. After the culture media were replaced with new culture media, the new culture media were treated with a test compound (30 nM) and incubated for 30 minutes. Then, each well was treated with interferon ? (100 units/ml) and lipopolysaccharide (LPS, 100 ng/ml) and incubated for 18 hours. The culture media were transferred to other test tubes. The concentration of PGE2 was quantified by means of the EIA kit (Cayman Chemicals).
# as §1
SMILES,inhibition at 1 µM (COX-1) [%],inhibition at 0.03 µM (COX-2) [%],melting point [°C]
"CC(=O)Oc1ccc(-c2c(-c3ccc(F)c(F)c3)ssc2=S)cc1 [Example 76, Acetic acid 4-[5-(3,4-difluorophenyl)-3-thioxo-3H-[1,2]dithiol-4-yl]-phenyl ester]",21.6,20.3,147 to 149
"CS(=O)(=O)c1ccc(-c2ssc(=S)c2-c2cccc(C(F)(F)F)c2)cc1 [Example 55, 5-(4-methanesulfonylphenyl)-4-(3-trifluoromethylphenyl)-[1,2]dithiol-3-thione]",27.6,20.2,188 to 189
"COc1ccc(-c2c(-c3ccc(S(C)(=O)=O)cc3)ssc2=S)cc1 [Example 43, 5-(4-methanesulfonylphenyl)-4-(4-methoxyphenyl)-[1,2]dithiol-3-thione]",19.3,38.4,220 to 222
"CS(=O)(=O)c1ccc(-c2ssc(=S)c2-c2ccc(Br)cc2)cc1 [Example 40, 4-(4-bromophenyl)-5-(4-methanesulfonylphenyl)-[1,2]dithiol-3-thione]",18.3,35.7,238 to 240
"CC(=O)Oc1ccc(-c2c(-c3ccc(S(C)(=O)=O)cc3)ssc2=S)cc1 [Example 69, Acetic acid 4-[5-(4-methanesulfonylphenyl)-3-thioxo-3H-[1,2]dithiol-4-yl]phenyl ester]",24.8,21.3,241 to 243
"CS(=O)(=O)c1ccc(-c2ssc(=S)c2-c2ccccc2F)cc1 [Example 62, 4-(2-fluorophenyl)-5-(4-methanesulfonylphenyl)-[1,2]dithiol-3-thione]",26.6,21,173 to 174
"CS(=O)(=O)c1ccc(-c2ssc(=S)c2-c2ccc(Br)cc2)c(Cl)c1 [Example 72, 4-(4-bromophenyl)-5-(2-chloro-4-methanesulfonylphenyl)-[1,2]dithiol-3-thione]",28.1,19.3,194 to 195
"CC(C)Oc1ccc(-c2c(-c3ccc(S(C)(=O)=O)cc3)ssc2=S)cc1 [Example 67, 4-(4-isopropoxylphenyl)-5-(4-methanesulfonylphenyl)-[1,2]dithiol-3-thione]",27.5,23.3,179 to 180
"CS(=O)(=O)c1ccc(-c2ssc(=S)c2-c2ccccc2)cc1 [Example 42, 5-(4-methanesulfonylphenyl)-4-phenyl-[1,2]dithiol-3-thione]",24.5,20.1,200 to 202
"COc1ccc(-c2c(-c3ccc(S(C)(=O)=O)cc3)ssc2=S)cc1OC [Example 60, 4-(3,4-dimethoxyphenyl)-5-(4-methanesulfonylphenyl)-[1,2]dithiol-3-thione]",26.5,19.3,182 to 183
"CS(=O)(=O)c1ccc(-c2ssc(=S)c2-c2ccccc2C(F)(F)F)cc1 [Example 44, 5-(4-methanesulfonylphenyl)-4-(2-trifluoromethylphenyl)-[1,2]dithiol-3-thione]",25.5,20.1,240 to 242
"CS(=O)(=O)c1ccc(-c2ssc(=S)c2-c2ccc(Cl)cc2)cc1 [Example 45, 4-(4-chlorophenyl)-5-(4-methanesulfonylphenyl)-[1,2]dithiol-3-thione]",19.6,22.1,233 to 235
"CC(=O)Oc1ccc(-c2c(-c3ccc(S(C)(=O)=O)c(F)c3)ssc2=S)cc1 [Example 79, Acetic acid 4-[5-(3-fluoro-4-methanesulfonylphenyl)-3-thioxo-3H-[1,2]dithiol-4-yl]-phenyl ester]",19.5,30.2,200 to 201
"Cc1cc(C)cc(-c2c(-c3ccc(S(C)(=O)=O)cc3)ssc2=S)c1 [Example 52, 4-(3,5-dimethylphenyl)-5-(4-methanesulfonylphenyl)-[1,2]dithiol-3-thione]",26.6,19.1,164 to 165
"CS(=O)(=O)c1ccc(-c2ssc(=S)c2-c2ccc(F)cc2F)cc1 [Example 63, 4-(2,4-difluorophenyl)-5-(4-methanesulfonylphenyl)-[1,2]dithiol-3-thione]",20.3,21.3,148 to 149
"Cc1ccc(-c2c(-c3ccc(F)c(F)c3)ssc2=S)cc1 [Example 74, 5-(3,4-difluorophenyl)-4-p-toryl-[1,2]dithiol-3-thione]",26.5,19.2,140 to 142
"CS(=O)(=O)c1ccc(-c2ssc(=S)c2-c2ccc(F)cc2)cc1 [Example 50, 4-(4-fluorophenyl)-5-(4-methanesulfonylphenyl)-[1,2]dithiol-3-thione]",27.2,19.6,195 to 197
"CS(=O)(=O)c1ccc(-c2ssc(=S)c2-c2ccccc2[N+](=O)[O-])cc1 [Example 54, 5-(4-methanesulfonylphenyl)-4-(2-nitrophenyl)-[1,2]dithiol-3-thione]",22.4,26.3,170 to 171
"CS(=O)(=O)c1ccc(-c2ssc(=S)c2-c2ccncc2)cc1 [Example 47, 5-(4-methanesulfonylphenyl)-4-(pyridine-4-yl)-[1,2]dithiol-3-thione]",22.5,21.4,245 to 247
